The subject of series [1] is parasite kinase activity which phosphorylates Toxofilin. Description: Kinase reaction on rToxofilin with tachyzoïte cytosolic fraction, with pharmacological inhibitors. The class given is biochemical, Toxoplasma gondii. The note with it: inhibitors added 15 min before starting the kinase reaction: heparin 20 μg per ml, GTP 200 μM, DRB 100 μM, [γ32P] ATP, 30° C. The protocol: Kinase reaction: 2 μg of immobilized rToxofilin on protein G-dynabeads were washed in kinase buffer before to be incubated with a tachyzoïte cytosolic fraction prepared in kinase buffer ([…]) and precleared on protein G-dynabeads. The reaction was started by adding 100 μM of Na2 ATP and 10 μCi of [γ^32P] ATP (3000 Ci/mmol, NEN life science product, Inc) (15 min, 30° C.). Unbound materials and unincorporated [γ^32P] ATP were washed out with 200 volumes of kinase buffer containing with TX-100 (0.5% vol/vol) followed by 100 volumes of kinase buffer. Toxofilin and bound proteins were eluted in SDS-PAGE sample buffer prior to electrophoresis and radioactivity scan (phosphoimager, Molecular Dynamics). Toxofilin phosphorylation was quantified using NIH Image Quant software.
To characterize the kinase activity responsible for Toxofilin phosphorylation, three types of experiments were carried out:
1) Pharmacological inhibitors such as heparin (20 μg per ml, Sigma), GTP (200 μM, Sigma), 5,6-dichloro-1-B-D-ribofuranosylbenzimidazole (100 μM, Calbiochem) or staurosporine (1 μM, Calbiochem) were added 15 min before starting the kinase reaction.

Series [2] relates to recombinant Toxofilin (r-Toxofilin) without GST.
Series [3] has as its target recombinant Toxofilin (r-Toxofilin) without GST. The source holds these as a separate data set.

With `Nc1nc2c(ncn2[C@@H]2O[C@H](COP(=O)(O)OP(=O)(O)OP(=O)(O)O)[C@@H](O)[C@H]2O)c(=O)[nH]1` [GTP], the “inhibition of the parasite kinase activity which phosphorylates Toxofilin” value (“inhibition” for short) in series [1] is “inhibited”. As for heparin [soluble heparin], the “inhibition” value in series [1] was “inhibited”.

As for `OC[C@H]1O[C@@H](n2cnc3cc(Cl)c(Cl)cc32)[C@H](O)[C@@H]1O` [DRB, 5,6-dichloro-1-B-D-ribofuranosylbenzimidazole], in series [1], the “inhibition” value was “inhibited”.

Human casein kinase II: the “phosphorylation of Toxofilin” value in series [2] is recorded as “Human casein kinase II works well at phosphorylating Toxofilin”.

B1: Thioredoxin-Hispatch Tg PP2C (protein)
chain: MKSSAEIRRTMDVPPTIHVPLPPTSYPAFDAAIFTDIGGRKHQEDRFTLCPQLVPGRDDCAFFGVFDGTVGDFASENVKDLVVPQLISSPAWQEVTEMLRSDVPATEVDEKLPQLLDQAVDDMYKNADNELVKMCEQLNKDYASSTSVTAVLAKGFVAVGHLGDSRIAMGVETPNGLNCEFLTVDHKPDMPHEKLRIMRNGGSVEYLHNHNNKPFIRGGDFSFRKSRGEQPMQLQYSRALGGKDLKMYGLSNQPDVRVVRVTPQHRVMILATDGLWDVMFAAQAVEIAMQARQEGRNPAQALVEMTLAEQQSRNQSADNITAMTVFFKKTD
For the molecule B1, the “in vitro phosphatase assay on 32P-phosphorylated Toxofilin” value in series [3] was “Toxofilin is a major substrate for type 2C phosphatase”.

(Values after US6949352B2, “Serine-threonine phosphatase protein of a parasitic organism of the Apicomplexa phylum, applications in therapeutics” (Centre National de la Recherche Scientifique (CNRS), priority 2001, dated 2005).)
